Data reported in the kinase profiling compilation of Christmann-Franck et al. (2016).

Key:
Test in all cases: KINOMEscan competition binding
Settings in all cases: compound 10.0 µM
ADCK3 (human) = ADCK3 (human) (UniProt Q8NI60)
AURKA (human) = AURKA (human) (UniProt O14965)
AXL (human) = AXL (human) (UniProt P30530)
BMX (human) = BMX (human) (UniProt P51813)
BRSK1 (human) = BRSK1 (human) (UniProt Q8TDC3)
CAMK4 (human) = CAMK4 (human) (UniProt Q16566)
CRK2 (P.falciparum) = CRK2 (P.falciparum) (UniProt P61075)
CRK2 (P.falciparum), sequence (P61075 whole entry, looked up): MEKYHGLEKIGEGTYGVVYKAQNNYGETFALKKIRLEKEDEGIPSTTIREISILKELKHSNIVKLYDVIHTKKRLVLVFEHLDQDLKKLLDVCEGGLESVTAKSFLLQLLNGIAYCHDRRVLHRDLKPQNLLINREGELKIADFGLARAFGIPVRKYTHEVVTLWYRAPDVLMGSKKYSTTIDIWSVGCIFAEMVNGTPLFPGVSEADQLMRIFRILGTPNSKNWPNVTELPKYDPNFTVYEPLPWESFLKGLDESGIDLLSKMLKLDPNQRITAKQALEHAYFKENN

CSNK1D (human) = CSNK1D (human) (UniProt P48730)
CSNK2A2 (human) = CSNK2A2 (human) (UniProt P19784)
DSTYK (human) = DSTYK (human) (UniProt Q6XUX3)
EGFR (human) = EGFR (human) (UniProt P00533)
ERBB3 (human) = ERBB3 (human) (UniProt P21860)
FES (human) = FES (human) (UniProt P07332)
ICK (human) = ICK (human) (UniProt Q9UPZ9)
IRAK3 (human) = IRAK3 (human) (UniProt Q9Y616)
LIMK1 (human) = LIMK1 (human) (UniProt P53667)
MAP3K10 (human) = MAP3K10 (human) (UniProt Q02779)
MAP4K3 (human) = MAP4K3 (human) (UniProt Q8IVH8)
MAP4K4 (human) = MAP4K4 (human) (UniProt O95819)
MAP4K4 (human), sequence (O95819 whole entry, looked up): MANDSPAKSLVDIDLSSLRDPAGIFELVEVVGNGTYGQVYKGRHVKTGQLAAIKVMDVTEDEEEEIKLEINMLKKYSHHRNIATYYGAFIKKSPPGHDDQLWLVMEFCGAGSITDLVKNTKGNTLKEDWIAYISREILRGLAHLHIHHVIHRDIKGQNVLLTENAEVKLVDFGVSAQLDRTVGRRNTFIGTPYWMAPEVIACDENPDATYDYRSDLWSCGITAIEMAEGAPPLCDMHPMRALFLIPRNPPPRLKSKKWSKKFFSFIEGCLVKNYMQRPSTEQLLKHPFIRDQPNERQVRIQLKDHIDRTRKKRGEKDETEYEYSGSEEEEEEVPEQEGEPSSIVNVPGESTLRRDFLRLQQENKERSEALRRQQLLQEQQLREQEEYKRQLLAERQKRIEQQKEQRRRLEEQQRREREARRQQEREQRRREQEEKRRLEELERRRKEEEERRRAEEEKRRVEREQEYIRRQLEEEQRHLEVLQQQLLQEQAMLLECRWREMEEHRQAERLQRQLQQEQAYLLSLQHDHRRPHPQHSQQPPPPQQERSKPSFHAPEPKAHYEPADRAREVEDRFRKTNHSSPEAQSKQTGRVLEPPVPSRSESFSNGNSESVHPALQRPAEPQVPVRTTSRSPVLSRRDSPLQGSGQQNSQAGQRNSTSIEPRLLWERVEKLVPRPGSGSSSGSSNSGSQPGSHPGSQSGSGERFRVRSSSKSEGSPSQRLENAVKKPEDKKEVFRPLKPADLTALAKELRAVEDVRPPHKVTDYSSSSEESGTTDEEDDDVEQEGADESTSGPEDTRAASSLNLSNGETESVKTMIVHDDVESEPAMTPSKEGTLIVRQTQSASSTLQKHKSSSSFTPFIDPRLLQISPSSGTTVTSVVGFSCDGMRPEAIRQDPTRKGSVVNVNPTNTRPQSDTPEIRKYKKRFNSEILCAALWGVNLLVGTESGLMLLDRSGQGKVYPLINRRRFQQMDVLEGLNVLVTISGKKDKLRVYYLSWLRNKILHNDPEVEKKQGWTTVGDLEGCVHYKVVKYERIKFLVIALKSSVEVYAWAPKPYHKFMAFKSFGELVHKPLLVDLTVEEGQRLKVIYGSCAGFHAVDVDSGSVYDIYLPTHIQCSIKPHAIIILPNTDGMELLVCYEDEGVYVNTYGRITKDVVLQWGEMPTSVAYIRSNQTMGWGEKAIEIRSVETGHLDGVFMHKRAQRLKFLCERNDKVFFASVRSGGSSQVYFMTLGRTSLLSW

MAPK1 (human) = MAPK1 (human) (UniProt P28482)
MAPK1 (human), sequence (P28482 whole entry, looked up): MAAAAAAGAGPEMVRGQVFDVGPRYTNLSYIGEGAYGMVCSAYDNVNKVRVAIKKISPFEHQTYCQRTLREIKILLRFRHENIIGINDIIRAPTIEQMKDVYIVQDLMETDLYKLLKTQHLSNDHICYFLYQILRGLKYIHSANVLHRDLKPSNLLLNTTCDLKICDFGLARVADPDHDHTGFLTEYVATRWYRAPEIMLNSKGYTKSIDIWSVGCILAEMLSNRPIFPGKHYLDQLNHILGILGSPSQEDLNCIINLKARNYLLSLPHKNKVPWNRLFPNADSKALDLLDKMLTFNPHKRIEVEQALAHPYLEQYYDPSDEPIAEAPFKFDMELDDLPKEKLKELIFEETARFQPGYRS

MAPK11 (human) = MAPK11 (human) (UniProt Q15759)
MARK1 (human) = MARK1 (human) (UniProt Q9P0L2)
MATK (human) = MATK (human) (UniProt P42679)
MELK (human) = MELK (human) (UniProt Q14680)
MYLK3 (human) = MYLK3 (human) (UniProt Q32MK0)
NLK (human) = NLK (human) (UniProt Q9UBE8)
NUAK1 (human) = NUAK1 (human) (UniProt O60285)
PDPK1 (human) = PDPK1 (human) (UniProt O15530)
[1] = system: PIK3CA (human), P42336 [E545K]
PIK3CA (human), P42336 [E545K], sequence (P42336 whole entry E545K, looked up): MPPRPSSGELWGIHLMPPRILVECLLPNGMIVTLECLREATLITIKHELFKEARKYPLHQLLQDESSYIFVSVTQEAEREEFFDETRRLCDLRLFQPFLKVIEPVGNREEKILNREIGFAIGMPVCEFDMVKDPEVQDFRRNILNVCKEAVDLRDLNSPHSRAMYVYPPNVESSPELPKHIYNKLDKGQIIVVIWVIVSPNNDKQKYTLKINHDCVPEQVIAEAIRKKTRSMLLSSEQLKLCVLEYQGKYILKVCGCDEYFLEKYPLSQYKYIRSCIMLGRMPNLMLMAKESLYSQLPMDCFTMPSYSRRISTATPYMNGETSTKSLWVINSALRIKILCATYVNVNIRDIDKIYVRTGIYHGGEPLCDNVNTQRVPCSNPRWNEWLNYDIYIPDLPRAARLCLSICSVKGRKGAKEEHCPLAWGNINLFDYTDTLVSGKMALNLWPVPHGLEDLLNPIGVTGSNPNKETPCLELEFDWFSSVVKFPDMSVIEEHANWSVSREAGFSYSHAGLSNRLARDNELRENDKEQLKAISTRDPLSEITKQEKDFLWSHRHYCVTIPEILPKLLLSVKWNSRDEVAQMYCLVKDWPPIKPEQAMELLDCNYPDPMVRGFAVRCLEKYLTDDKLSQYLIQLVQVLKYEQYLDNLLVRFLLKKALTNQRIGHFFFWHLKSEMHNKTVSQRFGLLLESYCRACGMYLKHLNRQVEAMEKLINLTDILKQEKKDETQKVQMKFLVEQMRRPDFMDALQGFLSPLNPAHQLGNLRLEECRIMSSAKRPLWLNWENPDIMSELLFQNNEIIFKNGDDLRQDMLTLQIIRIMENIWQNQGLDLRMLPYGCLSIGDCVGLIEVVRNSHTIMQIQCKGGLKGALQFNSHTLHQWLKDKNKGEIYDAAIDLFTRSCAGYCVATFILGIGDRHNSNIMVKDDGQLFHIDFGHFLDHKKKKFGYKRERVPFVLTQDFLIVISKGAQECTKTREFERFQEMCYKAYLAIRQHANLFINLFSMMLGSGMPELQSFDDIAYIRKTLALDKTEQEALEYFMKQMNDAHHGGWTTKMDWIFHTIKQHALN

PLK2 (human) = PLK2 (human) (UniProt Q9NYY3)
PLK4 (human) = PLK4 (human) (UniProt O00444)
PLK4 (human), sequence (O00444 whole entry, looked up): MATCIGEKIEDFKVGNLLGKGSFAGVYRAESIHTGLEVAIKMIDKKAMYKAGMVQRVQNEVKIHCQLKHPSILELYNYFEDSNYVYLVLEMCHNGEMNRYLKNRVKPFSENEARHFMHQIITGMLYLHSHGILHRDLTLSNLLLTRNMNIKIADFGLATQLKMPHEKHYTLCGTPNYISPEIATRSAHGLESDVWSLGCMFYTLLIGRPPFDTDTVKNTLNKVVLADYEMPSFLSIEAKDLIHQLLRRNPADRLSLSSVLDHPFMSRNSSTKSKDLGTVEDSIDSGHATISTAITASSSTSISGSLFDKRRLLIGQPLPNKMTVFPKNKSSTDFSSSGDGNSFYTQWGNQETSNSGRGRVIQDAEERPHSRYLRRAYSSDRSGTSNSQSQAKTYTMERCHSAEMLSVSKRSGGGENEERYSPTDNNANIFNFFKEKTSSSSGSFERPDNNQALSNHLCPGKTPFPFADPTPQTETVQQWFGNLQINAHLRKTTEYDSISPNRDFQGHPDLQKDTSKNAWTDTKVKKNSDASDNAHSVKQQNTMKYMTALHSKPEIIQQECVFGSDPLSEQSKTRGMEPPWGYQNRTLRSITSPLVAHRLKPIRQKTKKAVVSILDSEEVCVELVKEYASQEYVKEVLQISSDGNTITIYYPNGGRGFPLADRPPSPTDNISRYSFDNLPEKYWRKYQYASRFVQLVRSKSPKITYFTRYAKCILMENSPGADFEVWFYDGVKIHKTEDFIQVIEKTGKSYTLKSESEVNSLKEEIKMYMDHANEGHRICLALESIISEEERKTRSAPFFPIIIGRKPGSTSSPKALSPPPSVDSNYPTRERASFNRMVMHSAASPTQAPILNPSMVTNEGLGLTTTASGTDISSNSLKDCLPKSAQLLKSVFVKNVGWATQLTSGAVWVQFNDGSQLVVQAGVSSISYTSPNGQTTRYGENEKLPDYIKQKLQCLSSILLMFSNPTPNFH

PTK2 (human) = PTK2 (human) (UniProt Q05397)
PTK6 (human) = PTK6 (human) (UniProt Q13882)
RPS6KA2 KD1 (human) = RPS6KA2 KD1 (human) (UniProt Q15349)
RPS6KA6 KD1 (human) = RPS6KA6 KD1 (human) (UniProt Q9UK32)
STK16 (human) = STK16 (human) (UniProt O75716)
STK16 (human), sequence (O75716 whole entry, looked up): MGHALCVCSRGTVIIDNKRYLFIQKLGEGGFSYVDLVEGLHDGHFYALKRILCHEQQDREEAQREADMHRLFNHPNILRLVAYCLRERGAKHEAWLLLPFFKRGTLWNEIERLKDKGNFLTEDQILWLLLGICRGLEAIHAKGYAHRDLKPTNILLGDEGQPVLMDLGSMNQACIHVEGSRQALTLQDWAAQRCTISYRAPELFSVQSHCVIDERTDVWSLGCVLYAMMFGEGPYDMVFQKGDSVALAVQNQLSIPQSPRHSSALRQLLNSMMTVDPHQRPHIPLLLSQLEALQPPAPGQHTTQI

STK35 (human) = STK35 (human) (UniProt Q8TDR2)
TEK (human) = TEK (human) (UniProt Q02763)
TIE1 (human) = TIE1 (human) (UniProt P35590)
YES1 (human) = YES1 (human) (UniProt P07947)
MTOR (human) = MTOR (human) (UniProt P42345)

BRSK1 (human), sequence (Q8TDC3 whole entry, looked up): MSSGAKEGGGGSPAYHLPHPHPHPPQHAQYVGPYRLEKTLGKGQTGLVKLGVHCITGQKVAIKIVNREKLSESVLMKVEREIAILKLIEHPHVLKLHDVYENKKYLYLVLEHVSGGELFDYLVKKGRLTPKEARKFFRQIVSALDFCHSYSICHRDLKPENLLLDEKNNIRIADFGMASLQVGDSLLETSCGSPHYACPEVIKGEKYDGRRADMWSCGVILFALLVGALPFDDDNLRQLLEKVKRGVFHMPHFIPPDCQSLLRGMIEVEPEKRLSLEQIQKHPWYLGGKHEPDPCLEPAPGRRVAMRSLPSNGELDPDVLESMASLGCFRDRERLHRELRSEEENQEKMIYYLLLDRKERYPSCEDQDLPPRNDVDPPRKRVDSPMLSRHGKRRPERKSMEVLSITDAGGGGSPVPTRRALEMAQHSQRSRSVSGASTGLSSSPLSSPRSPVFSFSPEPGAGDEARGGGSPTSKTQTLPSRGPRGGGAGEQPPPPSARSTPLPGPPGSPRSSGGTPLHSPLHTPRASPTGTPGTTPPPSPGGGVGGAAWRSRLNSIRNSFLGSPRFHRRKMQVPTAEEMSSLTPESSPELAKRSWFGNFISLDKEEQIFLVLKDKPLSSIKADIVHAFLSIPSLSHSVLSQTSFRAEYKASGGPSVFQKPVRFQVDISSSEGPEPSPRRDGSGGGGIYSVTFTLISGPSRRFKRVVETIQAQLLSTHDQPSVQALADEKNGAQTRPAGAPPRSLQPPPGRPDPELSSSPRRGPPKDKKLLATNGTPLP

For `CCC(=O)N1CCN(c2ccc(-n3c(=O)ccc4cnc5ccc(-c6cnc7ccccc7c6)cc5c43)cc2C(F)(F)F)CC1`, the kinase still bound, per cent of control (ADCK3 (human)) was 17%, the kinase still bound, per cent of control (AURKA (human)) was 100% and the kinase still bound, per cent of control (AXL (human)) was 46%. It also gave a kinase still bound, per cent of control (BMX (human)) of 59%, a kinase still bound, per cent of control (BRSK1 (human)) of 78% and a kinase still bound, per cent of control (CAMK4 (human)) of 90%. It also gave a kinase still bound, per cent of control (CRK2 (P.falciparum)) of 97%, a per cent of control (CSNK1D (human)) of 4.3% and a kinase still bound, per cent of control (CSNK2A2 (human)) of 11%. For the same molecule, the kinase still bound, per cent of control (DSTYK (human)) was 28%, the kinase still bound, per cent of control (EGFR (human)) was 85% and the kinase still bound, per cent of control (ERBB3 (human)) was 44%. For the same molecule, the kinase still bound, per cent of control (FES (human)) was 41%, the kinase still bound, per cent of control (ICK (human)) was 100% and the kinase still bound, per cent of control (IRAK3 (human)) was 27%. The kinase still bound, per cent of control (LIMK1 (human)) was 15%, the kinase still bound, per cent of control (MAP3K10 (human)) was 99% and the kinase still bound, per cent of control (MAP4K3 (human)) was 1.9%. For the same molecule, the kinase still bound, per cent of control (MAP4K4 (human)) was 5.2%, the kinase still bound, per cent of control (MAPK1 (human)) was 100% and the kinase still bound, per cent of control (MAPK11 (human)) was 53%. It also gave a kinase still bound, per cent of control (MARK1 (human)) of 100%, a kinase still bound, per cent of control (MATK (human)) of 97% and a kinase still bound, per cent of control (MELK (human)) of 50%. The kinase still bound, per cent of control (MYLK3 (human)) was 94%, the kinase still bound, per cent of control (NLK (human)) was 25% and the kinase still bound, per cent of control (NUAK1 (human)) was 100%. It also gave a kinase still bound, per cent of control (PDPK1 (human)) of 100%, a kinase still bound, per cent of control [1] of 0.6% and a kinase still bound, per cent of control (PLK2 (human)) of 85%. It also gave a kinase still bound, per cent of control (PLK4 (human)) of 100%, a kinase still bound, per cent of control (PTK2 (human)) of 14% and a kinase still bound, per cent of control (PTK6 (human)) of 51%. For the same molecule, the kinase still bound, per cent of control (RPS6KA2 KD1 (human)) was 100%, the kinase still bound, per cent of control (RPS6KA6 KD1 (human)) was 66% and the kinase still bound, per cent of control (STK16 (human)) was 18%. The kinase still bound, per cent of control (STK35 (human)) was 18%, the kinase still bound, per cent of control (TEK (human)) was 19% and the kinase still bound, per cent of control (TIE1 (human)) was 100%. The kinase still bound, per cent of control (YES1 (human)) was 74%.
`COc1ccc(-c2ccc3c(N4CCOCC4)nc(N4C[C@@H](C)O[C@@H](C)C4)nc3n2)cc1CO` gave a kinase still bound, per cent of control (ADCK3 (human)) of 87%, a kinase still bound, per cent of control (AURKA (human)) of 80% and a kinase still bound, per cent of control (AXL (human)) of 100%. The kinase still bound, per cent of control (BMX (human)) was 86%, the kinase still bound, per cent of control (BRSK1 (human)) was 100% and the kinase still bound, per cent of control (CAMK4 (human)) was 100%. It also gave a kinase still bound, per cent of control (CRK2 (P.falciparum)) of 90%, a per cent of control (CSNK1D (human)) of 79% and a kinase still bound, per cent of control (CSNK2A2 (human)) of 98%. For the same molecule, the kinase still bound, per cent of control (DSTYK (human)) was 78%, the kinase still bound, per cent of control (EGFR (human)) was 100% and the kinase still bound, per cent of control (ERBB3 (human)) was 85%. It also gave a kinase still bound, per cent of control (FES (human)) of 99%, a kinase still bound, per cent of control (ICK (human)) of 100% and a kinase still bound, per cent of control (IRAK3 (human)) of 100%. It also gave a kinase still bound, per cent of control (LIMK1 (human)) of 100%, a kinase still bound, per cent of control (MAP3K10 (human)) of 98% and a kinase still bound, per cent of control (MAP4K3 (human)) of 85%. For the same molecule, the kinase still bound, per cent of control (MAP4K4 (human)) was 88%, the kinase still bound, per cent of control (MAPK1 (human)) was 100% and the kinase still bound, per cent of control (MAPK11 (human)) was 98%. It also gave a kinase still bound, per cent of control (MARK1 (human)) of 100%, a kinase still bound, per cent of control (MATK (human)) of 78% and a kinase still bound, per cent of control (MELK (human)) of 97%. For the same molecule, the kinase still bound, per cent of control (MTOR (human)) was 0%, the kinase still bound, per cent of control (MYLK3 (human)) was 100% and the kinase still bound, per cent of control (NLK (human)) was 96%. For the same molecule, the kinase still bound, per cent of control (NUAK1 (human)) was 76%, the kinase still bound, per cent of control (PDPK1 (human)) was 100% and the kinase still bound, per cent of control [1] was 2%. The kinase still bound, per cent of control (PLK2 (human)) was 100%, the kinase still bound, per cent of control (PLK4 (human)) was 100% and the kinase still bound, per cent of control (PTK2 (human)) was 95%. The kinase still bound, per cent of control (PTK6 (human)) was 100%, the kinase still bound, per cent of control (RPS6KA2 KD1 (human)) was 100% and the kinase still bound, per cent of control (RPS6KA6 KD1 (human)) was 76%. It also gave a kinase still bound, per cent of control (STK16 (human)) of 93%, a kinase still bound, per cent of control (STK35 (human)) of 96% and a kinase still bound, per cent of control (TEK (human)) of 71%. For the same molecule, the kinase still bound, per cent of control (TIE1 (human)) was 100% and the kinase still bound, per cent of control (YES1 (human)) was 100%.
